Measured values published in patent publication US5834461A, “Tricyclic benzazepine vasopressin antagonists” (American Cyanamid Company, priority 1997, dated 1998).
pIC50: −log10 of the molar value.

Columns and labels:
vasopressin V2 = assay: Vasopressin V2 Antagonist Activity in Conscious Hydrated Rats (diuretic effect); assay type: in vivo, normal Sprague-Dawley rats; conditions: 10 mg/kg orally, AVP 0.4 μg/kg i.p.
Method: Conscious hydrated rats are treated with compounds under study from 0.1 to 100 mg/kg orally or vehicle. Two to four rats are used for each compound. One hour later, arginine vasopressin (AVP, antidiuretic hormore, ADH) dissolved in peanut oil is administered at 0.4 μg/kg intraperitoneally. Two rats in each test would not receive arginine vasopressin but only the vehicle (peanut oil) to serve as water-loading control. Twenty minutes later each rat is given 30 mL/kg of deionized water orally by gavage and is placed individually in a metabolic cage equipped with a funnel and a graduated glass cylinder to collect urine for four hours. Urine volume is measured and osmolality analyzed by use of a Fiske One-Ten osmometer (Fiske Assoc., Norwood, Mass., USA). Urinary sodium, potassium, and chloride are analyzed by use of ion-specific electrodes in a Beckman E3 (Electrolyte 3) Analyzer. In the following results, […] and decreased osmolality relative to AVP-control indicates activity.

[1] = biological target: T1, rat kidney medullary V2 receptors (Rattus norvegicus, UniProt Q00788); assay: Binding Assay to Rat Kidney Medullary V2 Receptors; conditions: rat kidney medullary V2
T1 construct: Medullary tissues from rat kidneys are dissected out; from tissue; host or cells: rat kidney medulla membranes
Method: Medullary tissues from rat kidneys are dissected out, cut into small pieces and soaked in a […] sodium chloride solution containing 1.0 mM EDTA with many changes of the liquid phase, until the solution is clear of blood. The tissue is homogenized in a 0.25M sucrose solution containing 1.0 mM EDTA and 0.1 mM PMSF using a Potter-Elvehjem homogenizer with a teflon pestle. The homogenate is filtered through several layers (4 layers) of cheese cloth. The filtrate is rehomogenized using a dounce homogenizer, with a tight fitting pestle. The final homogenate is centrifuged at 1500×g for 15 min. The nuclear pellet is discarded and the supernatant fluid recentrifuged at 40,000×g for 30 min. The resulting pellet formed contains a dark inner part with the exterior, slightly pink. The pink outer part is suspended in a small amount of 50.0 mM Tris.HCl buffer, pH 7.4. The protein content is determined by the Lowry's method (Lowry et al., J. Biol. Chem., 1953). The membrane suspension is stored at -70° C., in 50.0 mM Tris.HCl, containing 0.2% inactivated BSA and 0.1 mM PMSF in aliquots of 1.0 ml containing 10.0 mg protein per ml of suspension until use in subsequent binding experiments.
For binding experiments, the following is added in μl volume to wells of a 96 well format of a microtiter plate: 100.0 μl of 100.0 mM Tris.HCl buffer containing 0.2% heat inactivated BSA, 10.0 mM MgCl2 and a mixture of protease inhibitors: leupeptin, 1.0 mg %; aprotinin, 1.0 mg %; 1,10-phenanthroline, 2.0 mg %; trypsin inhibitor, 10.0 mg % and 0.1 mM PMSF, 20.0 μl of [^3 H] Arginine^8, vasopressin (S.A. 75.0 Ci/mmole) at 0.8 nM and the reaction initiated by the addition of 80.0 μl of tissue membranes (200.0 μg tissue protein). The plates are left undisturbed on the bench top for 120 min to reach equilibrium. Non-specific binding is assessed in the presence of 1.0 μM of unlabeled ligand, added in 20 μl volume. For test compounds, these are solubilized in 50% dimethylsulfoxide (DMSO) and added in 20.0 μl volume to a final incubation volume of 200 μl. Upon completion of binding, the content of each well is filtered off, using a Brandel® cell Harvester (Gaithersburg, Md.). The radioactivity trapped on the filter disk by the ligand-receptor complex is assessed by liquid scintillation counting in a Packard LS Counter, with an efficiency of 65% for tritium.

vasopressin V1 = assay: Vasopressin V1 Antagonist Activity in Conscious Rats (vasopressin vasopressor response); assay type: in vivo, rat (spontaneously hypertensive rats); set-up: Average Change: unit not given here
Method: Conscious rats are restrained in a supine position with elastic tape. The area at the base of the tail is locally anesthetized by subcutaneous infiltration with 2% procaine (0.2 ml). Using aseptic technique the ventral caudal tail artery is isolated and a cannula made of PE 10 and 20 (heat-fused) tubing is passed into the lower abdominal aorta. The cannula is secured, heparinized (1000 i.u./cc), sealed and the wound closed with one or two stitches of Dexon 4-0. The caudal vein is also cannulated in the same manner for intravenous drug administration. The duration of the surgery is approximately 5 minutes. Additional local anesthesia (2% procaine or lidocaine) is provided as needed.
The animals are placed in plastic restraining cages in an upright position. The cannula is attached to a Statham P23Db pressure transducer and pulsatile blood pressure is recorded. […] The vasopressin injections are repeated 30, 60, 90, 120, 180, 240 and 300 min. later. Percentage of antagonism by the compound is calculated using the pre-drug vasopressin vasopressor response as 100%.

[2] = biological target: vasopressin V1 receptor (rat liver plasma membranes) (Rattus norvegicus, UniProt P30560); assay: Binding Assay to Rat Hepatic V1 Receptors; conditions: rat hepatic V1
Method: Rat liver plasma membranes expressing the vasopressin V1 receptor subtypes are isolated by sucrose density gradient according to the method described by Lesko et al., (1973). These membranes are quickly suspended in 50.0 mM Tris.HCl buffer, pH 7.4, containing 0.2% bovine serum albumin (BSA) and 0.1 mM phenylmethylsulfonylfluoride (PMSF) and kept frozen at -70° C. until used in subsequent binding experiments. For binding experiments, the following is added to the wells of a ninety-six well format microtiter plate: 100 μl of 100.0 mM Tris.HCl buffer containing 10.0 mM MgCl2, 0.2% heat inactivated BSA and a mixture of protease inhibitors: leupeptin, 1.0 mg %; aprotinin, 1.0 mg %; 1,10-phenanthroline,2.0 mg %; trypsin inhibitor, 10.0 mg % and 0.1 mM PMSF, 20.0 μl of [phenylalanyl-3,4,5,-^3 H] vasopressin (S.A. 45.1 Ci/mmole) at 0.8 nM, and the reaction initiated by the addition of 80 μl of tissue membranes containing 20 μg of tissue protein. The plates are kept undisturbed on the bench top at room temperature for 120 min. to reach equilibrium. Non-specific samples are assayed in the presence of 0.1 μM of the unlabeled antagonist phenylalanylvasopressin, added in 20.0 μl volume.
For test compounds, these are solubilized in 50% dimethylsulfoxide (DMSO) and added in 20.0 μl volume to a final incubation volume of 200 μl. Upon completion of binding, the content of each well is filtered off, using a Brandel® cell Harvester (Gaithersburg, Md.). The radioactivity trapped on the filter disk by the ligand-receptor complex is assessed by liquid scintillation counting in a Packard LS Counter, with an efficiency of 65% for tritium.

[3] = 10 mg/kg i.v., VAS 0.01 i.u./kg, 30 min
[4] = 10 mg/kg i.v., VAS 0.02 i.u./kg, 30 min
[5] = 20 mg/kg i.v., VAS 0.01 i.u./kg, 60 min
[6] = 20 mg/kg i.v., VAS 0.01 i.u./kg, 90 min
[7] = 20 mg/kg i.v., VAS 0.01 i.u./kg, 120 min
[8] = 20 mg/kg i.v., VAS 0.01 i.u./kg, 180 min
[9] = 20 mg/kg i.v., VAS 0.01 i.u./kg, 240 min
[10] = 20 mg/kg i.v., VAS 0.01 i.u./kg, 300 min
[11] = 20 mg/kg i.v., VAS 0.02 i.u./kg, 60 min
[12] = 20 mg/kg i.v., VAS 0.02 i.u./kg, 90 min
[13] = 20 mg/kg i.v., VAS 0.02 i.u./kg, 120 min
[14] = 20 mg/kg i.v., VAS 0.02 i.u./kg, 180 min
[15] = 20 mg/kg i.v., VAS 0.02 i.u./kg, 240 min
[16] = 20 mg/kg i.v., VAS 0.02 i.u./kg, 300 min

Chain of vasopressin V1 receptor (rat liver plasma membranes) (P30560 whole entry): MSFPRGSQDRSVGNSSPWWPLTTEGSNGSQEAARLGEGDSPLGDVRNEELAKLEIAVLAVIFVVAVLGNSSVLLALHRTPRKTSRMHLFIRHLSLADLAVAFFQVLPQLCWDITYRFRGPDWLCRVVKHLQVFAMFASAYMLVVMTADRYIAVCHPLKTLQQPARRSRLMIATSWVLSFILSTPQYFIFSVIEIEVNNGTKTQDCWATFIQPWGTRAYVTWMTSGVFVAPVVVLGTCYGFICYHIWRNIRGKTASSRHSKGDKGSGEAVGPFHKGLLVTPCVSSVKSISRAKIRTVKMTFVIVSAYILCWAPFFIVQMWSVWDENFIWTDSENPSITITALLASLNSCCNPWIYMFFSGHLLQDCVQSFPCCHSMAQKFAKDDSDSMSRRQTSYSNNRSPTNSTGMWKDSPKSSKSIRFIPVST
T1 sequence (Q00788 whole entry): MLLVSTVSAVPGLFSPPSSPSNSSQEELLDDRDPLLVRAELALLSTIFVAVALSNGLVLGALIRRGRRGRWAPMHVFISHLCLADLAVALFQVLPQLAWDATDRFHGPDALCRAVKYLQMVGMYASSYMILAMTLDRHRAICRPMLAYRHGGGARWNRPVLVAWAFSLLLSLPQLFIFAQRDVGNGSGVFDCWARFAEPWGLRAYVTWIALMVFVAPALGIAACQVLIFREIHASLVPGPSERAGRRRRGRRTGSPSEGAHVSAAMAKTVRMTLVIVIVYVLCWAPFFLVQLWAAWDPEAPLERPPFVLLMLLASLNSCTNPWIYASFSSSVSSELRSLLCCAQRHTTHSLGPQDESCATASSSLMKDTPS

Cc1ccccc1NC(=O)c1ccc(C(=O)N2Cc3ccccc3Cc3ccccc32)cc1 [Example 123, 4-[(6,11-Dihydro-5H-dibenz[b,e]azepin-5-yl)-carbonyl]-N-(2-methylphenyl)benzamide]
Osmolality (vasopressin V2): 1125 mOsm/kg
Urine Volume (vasopressin V2): 5.8 ml/4 hrs.
pIC50 [1]: 6.72
Average Change (vasopressin V1; [3]): 17.5
Inhibition (vasopressin V1; [3]): 0%
Average Change (vasopressin V1; [4]): 20
Inhibition (vasopressin V1; [4]): 39%
Average Change (vasopressin V1; [5]): 6
Inhibition (vasopressin V1; [5]): 66%
Average Change (vasopressin V1; [6]): 6
Inhibition (vasopressin V1; [6]): 66%
Average Change (vasopressin V1; [7]): 5
Inhibition (vasopressin V1; [7]): 71%
Average Change (vasopressin V1; [8]): 4
Inhibition (vasopressin V1; [8]): 77%
Average Change (vasopressin V1; [9]): 8
Inhibition (vasopressin V1; [9]): 54%
Average Change (vasopressin V1; [10]): 8
Inhibition (vasopressin V1; [10]): 54%
Average Change (vasopressin V1; [11]): 6
Inhibition (vasopressin V1; [11]): 82%
Average Change (vasopressin V1; [12]): 7
Inhibition (vasopressin V1; [12]): 79%
Average Change (vasopressin V1; [13]): 4.5
Inhibition (vasopressin V1; [13]): 86%
Average Change (vasopressin V1; [14]): 6.5
Inhibition (vasopressin V1; [14]): 80%
Average Change (vasopressin V1; [15]): 6.5
Inhibition (vasopressin V1; [15]): 80%
Average Change (vasopressin V1; [16]): 8
Inhibition (vasopressin V1; [16]): 76%
pIC50 [2]: 7.37

Cc1cccc(NC(=O)c2ccc(C(=O)N3Cc4ccccc4Cc4ccccc43)cc2)c1C [Example 124, 4-[(6.11-Dihydro-5H-dibenz[b,e]azepin-5-yl)-carbonyl]-N-(2,3-dimethylphenyl)benzamide]
Osmolality (vasopressin V2): 1172 mOsm/kg
Urine Volume (vasopressin V2): 5.5 ml/4 hrs.
pIC50 [1]: 6.68
Average Change (vasopressin V1; [3]): 38.5
Average Change (vasopressin V1; [4]): 43.5
Inhibition (vasopressin V1; [4]): -23%
Average Change (vasopressin V1; [5]): 4
Inhibition (vasopressin V1; [5]): 88%
Average Change (vasopressin V1; [6]): 12.5
Inhibition (vasopressin V1; [6]): 62%
Average Change (vasopressin V1; [7]): 12.5
Inhibition (vasopressin V1; [7]): 62%
Average Change (vasopressin V1; [8]): 21
Inhibition (vasopressin V1; [8]): 35%
Average Change (vasopressin V1; [9]): 18
Inhibition (vasopressin V1; [9]): 45%
Average Change (vasopressin V1; [10]): 20
Inhibition (vasopressin V1; [10]): 38%
Average Change (vasopressin V1; [11]): 17.5
Inhibition (vasopressin V1; [11]): 51%
Average Change (vasopressin V1; [12]): 18
Inhibition (vasopressin V1; [12]): 49%
Average Change (vasopressin V1; [13]): 9.5
Inhibition (vasopressin V1; [13]): 45%
Average Change (vasopressin V1; [14]): 21.5
Inhibition (vasopressin V1; [14]): 39%
Average Change (vasopressin V1; [15]): 24.5
Inhibition (vasopressin V1; [15]): 31%
Average Change (vasopressin V1; [16]): 33.5
Inhibition (vasopressin V1; [16]): 6%
pIC50 [2]: 5.92

CSc1ccccc1C(=O)Nc1ccc(C(=O)N2Cc3ccccc3Cc3ccccc32)cc1 [Example 61, N-[4-[(6.11-Dihydro-5H-dibenz[b.e]azepin-5-yl)-carbonyl]phenyl]-2-(methylthio)benzamide]
Osmolality (vasopressin V2): 975 mOsm/kg
Urine Volume (vasopressin V2): 9.3 ml/4 hrs.
pIC50 [1]: 7.17
Average Change (vasopressin V1; [3]): 21
Inhibition (vasopressin V1; [3]): 26%
Average Change (vasopressin V1; [4]): 32.5
Inhibition (vasopressin V1; [4]): 37%
Average Change (vasopressin V1; [5]): 13
Inhibition (vasopressin V1; [5]): 54%
Average Change (vasopressin V1; [6]): 8
Inhibition (vasopressin V1; [6]): 72%
Average Change (vasopressin V1; [7]): 12
Inhibition (vasopressin V1; [7]): 58%
Average Change (vasopressin V1; [8]): 15.5
Inhibition (vasopressin V1; [8]): 46%
Average Change (vasopressin V1; [9]): 12
Inhibition (vasopressin V1; [9]): 58%
Average Change (vasopressin V1; [10]): 15.5
Inhibition (vasopressin V1; [10]): 46%
Average Change (vasopressin V1; [11]): 14.5
Inhibition (vasopressin V1; [11]): 72%
Average Change (vasopressin V1; [12]): 16.5
Inhibition (vasopressin V1; [12]): 68%
Average Change (vasopressin V1; [13]): 20
Inhibition (vasopressin V1; [13]): 61%
Average Change (vasopressin V1; [14]): 17.5
Inhibition (vasopressin V1; [14]): 66%
Average Change (vasopressin V1; [15]): 23
Inhibition (vasopressin V1; [15]): 55%
Average Change (vasopressin V1; [16]): 24
Inhibition (vasopressin V1; [16]): 53%
pIC50 [2]: 7.28
